Experimental data taken from patent US12209071B2, “Triazine derivatives for treating diseases relating to neurotrophins” (AlzeCure Pharma AB, priority 2018, dated 2025).

Experiments:
[1] = target: T1, TrkA (Homo sapiens, UniProt P04629); experiment: Enzyme Fragment Complementation cell-based assay, TrkA; conditions: U2OS-cells over-expressing TrkA; ligand 10 ng/mL; 3 hours incubation
T1 construct: expressed in transfected cells; host or cells: U2OS
Description: (§1) A high throughput cell-based screen has been used to identify positive modulators of TrkA, TrkB and TrkC. The screen involves the use of cell-based assay overexpressing TrkA, TrkB or TrkC. The purpose of the assay is to identify compounds that modulate neurotrophin signalling (Forsell et al 2012). The assay can be used in inhibitor mode using a high concentration of ligand, in modulator mode using an intermediate concentration and in agonist mode using a low concentration of ligand.
(§2) The assay uses Enzyme Fragment Complementation (EFC) technique, which is a proximity-based assay. Briefly, cells used in this assay over-express two fusion proteins, i.e. the receptor, which can be either one of TrkA, TrkB, TrkC, IGF1R or FGFR1, fused to a small peptide of beta-galactosidase and an adaptor protein, i.e. SHC1 (or any other Trk-adaptor protein) fused to the major part of beta-galactosidase. […] The proximity between the small activating peptide on the receptor and the major part of beta-galactosidase on the adaptor protein leads to an active beta-galactosidase enzyme. The activation of the receptor is quantified by measuring the amount of active beta-galactosidase by its conversion of a non-luminescent substrate into a luminescent product.
(§3) U2OS-cells, over-expressing TrkA or TrkB or TrkC, are plated in 96- or 384-well plates and incubated overnight. Alternatively, cryopreserved HEK293-cells expressing IGFR1 or cryopreserved U2OS-cells expressing FGFR1 were plated in 96- or 384-well plates. On the following day, test compound was pre-mixed with ligand (NGF, BDNF, NT-3, IGF-1 or basic fibroblast growth factor (bFGF(FGF-2))) and the ligand-compound mixture is then added to the cells to yield a final ligand concentration of 10 ng/mL. After 3 hours of incubation at room temperature, the incubation is stopped by the addition of a beta-galactosidase substrate mixture containing detergents. The substrate mixture is incubated for 60 minutes at ambient temperature. The luminescence is thereafter read by the use of a plate reader.

[2] = target: T2, TrkB (Homo sapiens, UniProt Q16620); experiment: Enzyme Fragment Complementation cell-based assay, TrkB; conditions: U2OS-cells over-expressing TrkB; ligand 10 ng/mL; 3 hours incubation
T2 construct: expressed in transfected cells; host or cells: U2OS
T2 sequence (Q16620 32-822): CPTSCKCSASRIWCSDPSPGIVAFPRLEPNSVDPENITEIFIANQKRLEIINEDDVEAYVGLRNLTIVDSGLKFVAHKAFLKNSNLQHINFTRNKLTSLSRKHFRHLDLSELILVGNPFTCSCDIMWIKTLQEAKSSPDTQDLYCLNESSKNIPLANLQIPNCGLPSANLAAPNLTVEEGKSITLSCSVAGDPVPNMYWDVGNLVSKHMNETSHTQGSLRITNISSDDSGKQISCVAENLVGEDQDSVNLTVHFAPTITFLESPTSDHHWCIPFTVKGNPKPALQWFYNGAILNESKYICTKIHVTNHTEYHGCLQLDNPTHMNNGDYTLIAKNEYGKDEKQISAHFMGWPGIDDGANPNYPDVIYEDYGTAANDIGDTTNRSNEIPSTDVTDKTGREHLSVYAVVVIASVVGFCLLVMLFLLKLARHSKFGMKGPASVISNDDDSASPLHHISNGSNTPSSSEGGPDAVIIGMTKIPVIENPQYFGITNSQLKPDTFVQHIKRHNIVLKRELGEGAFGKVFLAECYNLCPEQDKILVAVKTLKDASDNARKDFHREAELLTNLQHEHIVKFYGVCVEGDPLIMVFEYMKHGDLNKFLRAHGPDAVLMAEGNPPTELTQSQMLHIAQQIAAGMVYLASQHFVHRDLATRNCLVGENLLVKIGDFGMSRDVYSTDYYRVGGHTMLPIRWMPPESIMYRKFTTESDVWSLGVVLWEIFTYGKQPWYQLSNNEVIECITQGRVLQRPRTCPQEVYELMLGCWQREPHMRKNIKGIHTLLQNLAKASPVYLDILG
Description: as §1, §2, §3

T1 sequence (P04629 33-796): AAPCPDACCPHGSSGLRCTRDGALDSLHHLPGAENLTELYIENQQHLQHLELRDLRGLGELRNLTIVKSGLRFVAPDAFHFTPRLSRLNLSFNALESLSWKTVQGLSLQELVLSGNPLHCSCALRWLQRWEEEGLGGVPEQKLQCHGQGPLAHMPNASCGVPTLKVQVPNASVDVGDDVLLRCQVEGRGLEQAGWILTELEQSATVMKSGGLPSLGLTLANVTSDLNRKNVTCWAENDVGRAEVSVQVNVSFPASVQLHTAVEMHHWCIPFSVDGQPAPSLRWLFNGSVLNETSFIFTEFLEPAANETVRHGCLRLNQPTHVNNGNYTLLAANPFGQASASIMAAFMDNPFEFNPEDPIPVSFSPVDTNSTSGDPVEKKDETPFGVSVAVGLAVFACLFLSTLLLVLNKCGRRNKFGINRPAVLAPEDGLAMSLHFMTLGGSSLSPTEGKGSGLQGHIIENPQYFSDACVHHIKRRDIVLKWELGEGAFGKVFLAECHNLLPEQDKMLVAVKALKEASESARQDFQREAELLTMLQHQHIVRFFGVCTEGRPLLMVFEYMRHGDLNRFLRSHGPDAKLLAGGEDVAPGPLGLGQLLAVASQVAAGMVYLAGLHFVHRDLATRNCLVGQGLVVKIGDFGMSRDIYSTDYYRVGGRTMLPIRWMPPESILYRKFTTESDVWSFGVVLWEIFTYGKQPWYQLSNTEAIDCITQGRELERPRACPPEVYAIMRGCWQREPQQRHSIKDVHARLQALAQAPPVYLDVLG

EC50 [1] [nM] | EC50 [2] [nM] | SMILES
930 | 3180 | Cc1ccccc1Oc1ccc(-n2c(=O)[nH]c(=O)n(-c3ccccc3)c2=O)cc1C [Example 62, 1-[3-methyl-4-(2-methylphenoxy)phenyl]-3-phenyl-1,3,5-triazinane-2,4,6-trione]
2380 | 950 | Cc1cc(-n2c(=O)[nH]c(=O)n(-c3cscn3)c2=O)ccc1Oc1ccccc1 [Example 63, 1-(3-methyl-4-phenoxyphenyl)-3-(1,3-thiazol-4-yl)-1,3,5-triazinane-2,4,6-trione]
180 | 260 | COc1ccccc1-n1c(=O)[nH]c(=O)n(-c2ccc(Oc3ccccc3)c(C)c2)c1=O [Example 51, 1-(2-methoxyphenyl)-3-(3-methyl-4-phenoxyphenyl)-1,3,5-triazinane-2,4,6-trione]
470 | 360 | Cc1cc(-n2c(=O)[nH]c(=O)n(-c3ccc(F)cc3)c2=O)ccc1Oc1ccccc1 [Example 45, 1-(4-fluorophenyl)-3-(3-methyl-4-phenoxyphenyl)-1,3,5-triazinane-2,4,6-trione]
480 | 270 | Cc1cc(-n2c(=O)[nH]c(=O)n(-c3ccc4[nH]ccc4c3)c2=O)ccc1Oc1ccccc1 [Example 47, 1-(1H-indol-5-yl)-3-(3-methyl-4-phenoxyphenyl)-1,3,5-triazinane-2,4,6-trione]
310 | 190 | COc1cccc(-n2c(=O)[nH]c(=O)n(-c3ccc(Oc4ccccc4)c(C)c3)c2=O)c1 [Example 50, 1-(3-methoxyphenyl)-3-(3-methyl-4-phenoxyphenyl)-1,3,5-triazinane-2,4,6-trione]
500 | 260 | Cc1cc(-n2c(=O)[nH]c(=O)n(-c3ccc4c(c3)OCO4)c2=O)ccc1Oc1ccccc1 [Example 48, 1-(2H-1,3-benzodioxol-5-yl)-3-(3-methyl-4-phenoxyphenyl)-1,3,5-triazinane-2,4,6-trione]
870 | 140 | Cc1cc(-n2c(=O)[nH]c(=O)n(-c3ccccn3)c2=O)ccc1Oc1ccccc1 [Example 18, 1-(3-methyl-4-phenoxyphenyl)-3-(pyridin-2-yl)-1,3,5-triazinane-2,4,6-trione]
160 | 120 | Cc1cc(-n2c(=O)[nH]c(=O)n(-c3cccc(Cl)c3)c2=O)ccc1Oc1ccccc1 [Example 43, 1-(3-chlorophenyl)-3-(3-methyl-4-phenoxyphenyl)-1,3,5-triazinane-2,4,6-trione]
140 | 100 | Cc1cc(-n2c(=O)[nH]c(=O)n(-c3cccc4ccoc34)c2=O)ccc1Oc1ccccc1 [Example 73, 1-(1-benzofuran-7-yl)-3-(3-methyl-4-phenoxyphenyl)-1,3,5-triazinane-2,4,6-trione]
200 | 110 | Cc1cc(-n2c(=O)[nH]c(=O)n(-c3cccc4occc34)c2=O)ccc1Oc1ccccc1 [Example 72, 1-(1-benzofuran-4-yl)-3-(3-methyl-4-phenoxyphenyl)-1,3,5-triazinane-2,4,6-trione]
620 | 450 | COc1cc(Oc2ccccc2)c(C)cc1-n1c(=O)[nH]c(=O)n(-c2ccccc2)c1=O [Example 13, 1-(2-methoxy-5-methyl-4-phenoxyphenyl)-3-phenyl-1,3,5-triazinane-2,4,6-trione]
330 | 260 | Cc1cc(-n2c(=O)[nH]c(=O)n(-c3cccc(OC(F)(F)F)c3)c2=O)ccc1Oc1ccccc1 [Example 44, 1-(3-methyl-4-phenoxyphenyl)-3-[3-(trifluoromethoxy)phenyl]-1,3,5-triazinane-2,4,6-trione]
440 | 310 | Cc1cc(-n2c(=O)[nH]c(=O)n(-c3ccccc3)c2=O)c(C)cc1Oc1ccccc1 [Example 54, 1-(2,5-dimethyl-4-phenoxyphenyl)-3-phenyl-1,3,5-triazinane-2,4,6-trione]

The next lines start with the compound.

SMILES | EC50 [1] [nM] | EC50 [2] [nM]
COc1c(-n2c(=O)[nH]c(=O)n(-c3ccccc3)c2=O)ccc(Oc2ccccc2)c1C [Example 33, 1-(2-methoxy-3-methyl-4-phenoxyphenyl)-3-phenyl-1,3,5-triazinane-2,4,6-trione] | 230 | 100
N#Cc1cccc(-n2c(=O)[nH]c(=O)n(-c3ccc(Oc4ccccc4)cc3)c2=O)c1 [Example 3, 3-[2,4,6-trioxo-3-(4-phenoxyphenyl)-1,3,5-triazinan-1-yl]benzonitrile] | 6700 | 
CN(C)C(=O)COc1cc(-n2c(=O)[nH]c(=O)n(-c3ccccc3)c2=O)ccc1Oc1ccccc1 [Example 77, 1-{3-[2-(Dimethylamino)-2-oxoethoxy]-4-phenoxyphenyl}-3-phenyl-1,3,5-triazinane-2,4,6-trione] | 430 | 360
Cc1ccc(-n2c(=O)[nH]c(=O)n(-c3ccc(Oc4ccccc4)cc3C)c2=O)cc1 [Example 71, 1-(2-methyl-4-phenoxyphenyl)-3-(4-methylphenyl)-1,3,5-triazinane-2,4,6-trione] | 1660 | 610
COCCOc1cc(-n2c(=O)[nH]c(=O)n(-c3ccc(OC)cc3)c2=O)ccc1Oc1ccccc1 [Example 60, 1-[3-(2-methoxyethoxy)-4-phenoxyphenyl]-3-(4-methoxyphenyl)-1,3,5-triazinane-2,4,6-trione] | 300 | 220
COCCOc1cc(-n2c(=O)[nH]c(=O)n(-c3cccc(OC)c3)c2=O)ccc1Oc1ccccc1 [Example 61, 1-[3-(2-methoxyethoxy)-4-phenoxyphenyl]-3-(3-methoxyphenyl)-1,3,5-triazinane-2,4,6-trione] | 420 | 380
COc1ccc(-n2c(=O)[nH]c(=O)n(-c3ccc(Oc4ccccc4)cc3)c2=O)cc1 [Example 2, 1-(4-methoxyphenyl)-3-(4-phenoxyphenyl)-1,3,5-triazinane-2,4,6-trione] | 1400 | 2400
CN(C)C(=O)Cc1cc(-n2c(=O)[nH]c(=O)n(-c3ccccc3)c2=O)ccc1Oc1ccccc1 [Example 76, 1-{3-[2-(Dimethylamino)-2-oxoethyl]-4-phenoxyphenyl}-3-phenyl-1,3,5-triazinane-2,4,6-trione] | 33000 | 4530
Cc1cc(Oc2ccccc2)ccc1-n1c(=O)[nH]c(=O)n(-c2ccccc2)c1=O [Example 70, 1-(2-methyl-4-phenoxyphenyl)-3-phenyl-1,3,5-triazinane-2,4,6-trione] | 660 | 350
COc1cc(-n2c(=O)[nH]c(=O)n(C)c2=O)cc(C)c1Oc1ccccc1 [Example 32, 1-(3-methoxy-5-methyl-4-phenoxyphenyl)-3-methyl-1,3,5-triazinane-2,4,6-trione] | 800 | 
COc1cccc(-n2c(=O)[nH]c(=O)n(-c3ccc(Oc4ccccc4)c(OC)c3)c2=O)c1 [Example 52, 1-(3-methoxy-4-phenoxyphenyl)-3-(3-methoxyphenyl)-1,3,5-triazinane-2,4,6-trione] | 380 | 410
Cc1cc(-n2c(=O)[nH]c(=O)n(-c3ccc(Oc4ccccc4)c(C)c3)c2=O)ccc1Oc1ccccc1 [Example 67, 1,3-bis(3-methyl-4-phenoxyphenyl)-1,3,5-triazinane-2,4,6-trione] | 3200 | 26000
COC(=O)c1cc(-n2c(=O)[nH]c(=O)n(-c3ccccc3)c2=O)ccc1Oc1ccccc1 [Example 74, methyl 2-phenoxy-5-(2,4,6-trioxo-3-phenyl-1,3,5-triazinan-1-yl)benzoate] | 580 | 540
Cn1c(=O)[nH]c(=O)n(-c2ccc3c(cnn3-c3ccccc3)c2)c1=O [Example 31, 1-methyl-3-(1-phenyl-1H-indazol-5-yl)-1,3,5-triazinane-2,4,6-trione] | 46000 | 69000
Cc1cc(-n2c(=O)[nH]c(=O)n(-c3ccccc3)c2=O)ccc1Cc1ccccc1 [Example 42, 1-(4-benzyl-3-methylphenyl)-3-phenyl-1,3,5-triazinane-2,4,6-trione] | 190 | 280
COc1ccc(-n2c(=O)[nH]c(=O)n(-c3ccc(Oc4ccccc4)c(OC)c3)c2=O)cc1 [Example 53, 1-(3-methoxy-4-phenoxyphenyl)-3-(4-methoxyphenyl)-1,3,5-triazinane-2,4,6-trione] | 960 | 780
O=c1[nH]c(=O)n(-c2ccc3c(cnn3-c3ccccc3)c2)c(=O)n1-c1ccccc1 [Example 19, 1-phenyl-3-(1-phenyl-1H-indazol-5-yl)-1,3,5-triazinane-2,4,6-trione] | 820 | 880
COc1cc(-n2c(=O)[nH]c(=O)n(-c3ccccc3)c2=O)cc(C)c1Oc1ccccc1 [Example 14, 1-(3-methoxy-5-methyl-4-phenoxyphenyl)-3-phenyl-1,3,5-triazinane-2,4,6-trione] | 490 | 
